Experimental data published in ChEMBL document CHEMBL1201862, “PubChem BioAssay data set” (2004).
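96-well plates; 48 h exposure; 5 concentrations. Endpoints by linear interpolation between flanking doses. Not reached: highest tested concentration assigned. GI50: concentration for 50% inhibition of growth.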 Activity calls are given as the source filed them. Rule as the data show it: active = GI50 up to about 1.1 µM and inactive = higher.

Assays:
Assay in all cases: DTP human tumour cell line panel, 48 h
[1] = system: TK-10
[2] = system: T47D
[3] = system: HOP-92
[4] = system: RPMI-8226
[5] = system: SNB-19
[6] = system: IGROV-1
[7] = system: ACHN
[8] = system: HCT-15
[9] = system: Malme-3M
[10] = system: A549
[11] = system: OVCAR-4
[12] = system: HOP-62
[13] = system: OVCAR-3
[14] = system: SF-295
[15] = system: M14
[16] = system: NCI/ADR-RES
[17] = system: COLO 205
[18] = system: NCI-H460
[19] = system: SR
[20] = system: HCC 2998

O=C(c1ccccc1)c1ccc2[nH]c(-c3c(Cl)c(Cl)c(Cl)c(Cl)c3C(=O)N/N=C/c3ccccc3)nc2c1
GI50 [1]: 38.8 µM (inactive) | GI50 [2]: 14.7 µM (inactive) | GI50 [3]: 23.7 µM (inactive) | GI50 [4]: 23.4 µM (inactive) | GI50 [5]: 32.6 µM (inactive) | GI50 [6]: 14.9 µM (inactive) | GI50 [7]: 16.7 µM (inactive) | GI50 [8]: 23.2 µM | GI50 [9]: 26.1 µM (inactive) | GI50 [10]: 27.7 µM (inactive) | GI50 [11]: 16.4 µM (inactive) | GI50 [12]: 23.1 µM (inactive) | GI50 [13]: 19.6 µM (inactive) | GI50 [14]: 22.4 µM (inactive) | GI50 [15]: 31.2 µM (inactive) | GI50 [16]: 19.8 µM (inactive) | GI50 [17]: 17.5 µM (inactive)

O=C(NNC(=O)/C(=C/c1cccc([N+](=O)[O-])c1)NC(=O)c1ccccc1)Nc1ccc(Cl)cc1
GI50 [1]: 15.5 µM (inactive) | GI50 [3]: 21 µM (inactive) | GI50 [4]: 9.55 µM (inactive) | GI50 [5]: 12.7 µM (inactive) | GI50 [6]: 11.9 µM (inactive) | GI50 [7]: 14 µM (inactive) | GI50 [8]: 12.2 µM | GI50 [9]: 14.2 µM (inactive) | GI50 [10]: 14.3 µM (inactive) | GI50 [11]: 11.2 µM (inactive) | GI50 [12]: 14.3 µM (inactive) | GI50 [13]: 11.6 µM (inactive) | GI50 [18]: 14.6 µM (inactive) | GI50 [14]: 18.7 µM (inactive) | GI50 [15]: 12.8 µM (inactive) | GI50 [17]: 13.4 µM (inactive) | GI50 [19]: 7.74 µM (inactive) | GI50 [20]: 13.1 µM (inactive)

COc1cc(-c2nccc3cc(OC)c(OC)cc23)ccc1O
GI50 [1]: 42 µM (inactive) | GI50 [3]: 23.9 µM (inactive) | GI50 [4]: 21.4 µM (inactive) | GI50 [5]: 68.1 µM (inactive) | GI50 [6]: 80 µM (inactive) | GI50 [7]: 44.9 µM (inactive) | GI50 [8]: 27.9 µM | GI50 [9]: > 100 µM (inactive) | GI50 [10]: > 100 µM (inactive) | GI50 [11]: 68.4 µM (inactive) | GI50 [12]: > 100 µM (inactive) | GI50 [13]: 49.3 µM (inactive) | GI50 [18]: 27.8 µM (inactive) | GI50 [14]: 25.6 µM (inactive) | GI50 [15]: 45.9 µM (inactive) | GI50 [17]: 40.5 µM (inactive) | GI50 [19]: 30.3 µM (inactive) | GI50 [20]: > 100 µM (inactive)

O=C1CCCCC/C1=C\c1ccc(F)cc1
GI50 [1]: 50.8 µM (inactive) | GI50 [2]: > 100 µM (inactive) | GI50 [3]: 61.1 µM (inactive) | GI50 [4]: 45.2 µM (inactive) | GI50 [5]: > 100 µM (inactive) | GI50 [6]: > 100 µM (inactive) | GI50 [7]: > 100 µM (inactive) | GI50 [8]: > 100 µM | GI50 [9]: > 100 µM (inactive) | GI50 [10]: > 100 µM (inactive) | GI50 [11]: 95.5 µM (inactive) | GI50 [12]: > 100 µM (inactive) | GI50 [13]: > 100 µM (inactive) | GI50 [18]: 50.1 µM (inactive) | GI50 [14]: > 100 µM (inactive) | GI50 [15]: > 100 µM (inactive) | GI50 [17]: > 100 µM (inactive) | GI50 [19]: 47.6 µM (inactive) | GI50 [20]: > 100 µM (inactive)

O=C(Nc1cccc(C(F)(F)F)c1)C(=O)C1NC(=S)NC1=O (stereo unspecified)
GI50 [1]: > 100 µM (inactive) | GI50 [3]: > 100 µM (inactive) | GI50 [4]: > 100 µM (inactive) | GI50 [5]: > 100 µM (inactive) | GI50 [6]: > 100 µM (inactive) | GI50 [7]: > 100 µM (inactive) | GI50 [8]: 35.3 µM | GI50 [9]: > 100 µM (inactive) | GI50 [10]: > 100 µM (inactive) | GI50 [11]: > 100 µM (inactive) | GI50 [12]: > 100 µM (inactive) | GI50 [13]: > 100 µM (inactive) | GI50 [18]: > 100 µM (inactive) | GI50 [14]: > 100 µM (inactive) | GI50 [15]: > 100 µM (inactive) | GI50 [17]: 39 µM (inactive) | GI50 [19]: > 100 µM (inactive) | GI50 [20]: > 100 µM (inactive)

CCOC(=O)c1c(N)sc2c1C(C(=O)OCC)CCCC2 (stereo unspecified)
GI50 [1]: > 100 µM (inactive) | GI50 [2]: 22.5 µM (inactive) | GI50 [3]: 75.5 µM (inactive) | GI50 [4]: 46.2 µM (inactive) | GI50 [5]: 71.6 µM (inactive) | GI50 [6]: > 100 µM (inactive) | GI50 [7]: 83.6 µM (inactive) | GI50 [8]: 67.3 µM | GI50 [9]: > 100 µM (inactive) | GI50 [10]: 88.9 µM (inactive) | GI50 [12]: > 100 µM (inactive) | GI50 [18]: 35.2 µM (inactive) | GI50 [15]: > 100 µM (inactive) | GI50 [17]: 85.7 µM (inactive) | GI50 [19]: 34.6 µM (inactive) | GI50 [20]: 76.9 µM (inactive)
